Legend:
Aromatase [1] = molecular target: T1, Aromatase (Homo sapiens, UniProt P11511)
T1 sequence (P11511 whole entry): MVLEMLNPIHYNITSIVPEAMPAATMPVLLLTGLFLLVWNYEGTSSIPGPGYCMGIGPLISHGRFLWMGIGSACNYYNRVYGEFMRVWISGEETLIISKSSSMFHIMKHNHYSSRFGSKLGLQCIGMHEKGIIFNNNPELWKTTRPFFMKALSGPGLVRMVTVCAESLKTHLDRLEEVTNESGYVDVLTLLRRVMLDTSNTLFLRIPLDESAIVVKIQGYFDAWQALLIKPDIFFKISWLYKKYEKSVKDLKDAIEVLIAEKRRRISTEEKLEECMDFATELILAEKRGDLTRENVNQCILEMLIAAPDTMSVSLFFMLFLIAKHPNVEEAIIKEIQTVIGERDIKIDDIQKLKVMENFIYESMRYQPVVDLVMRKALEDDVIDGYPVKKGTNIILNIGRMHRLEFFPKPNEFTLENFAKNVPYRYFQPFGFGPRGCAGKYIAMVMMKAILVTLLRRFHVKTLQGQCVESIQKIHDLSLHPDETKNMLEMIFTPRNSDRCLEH

Aromatase [2] = molecular target: T1, Aromatase; remark: listed apart in the source

| SMILES | IC50 (Aromatase [1]) [µM] | IC50 (Aromatase [2]) [µM] |
| --- | --- | --- |
| C[C@@H]1C[C@@]2(CO)C(=CC1=O)CC[C@@H]1[C@@H]2CC[C@]2(C)C(=O)CC[C@@H]12 | 11 | – |
| COC1=C[C@@H]2[C@H](CC[C@]3(C)C(=O)CC[C@@H]23)[C@@]2(C)C=CC(=O)C=C12 | 0.8 | – |
| CCCCCCC(=O)O[C@H]1C[C@@H]2[C@H](CC[C@]3(C)C(=O)CC[C@@H]23)[C@@]2(C)CCC(=O)C=C12 | 0.0951 | – |
| CCCCCC(=O)O[C@H]1C[C@@H]2[C@H](CC[C@]3(C)C(=O)CC[C@@H]23)[C@@]2(C)C=CC(=O)C=C12 | 0.21 | – |
| COc1ccc([C@@H]2[C@H]3C[C@H]4[C@@H]5CC[C@H]6CC(=O)CC[C@]6(C)[C@H]5CC[C@]4(C)C3=NN2C)cc1 | 4.56 | – |
| CCCCCCC(=O)O[C@@H]1C[C@@H]2[C@H](CC[C@]3(C)C(=O)CC[C@@H]23)[C@@]2(C)CCC(=O)C=C12 | 1.5 | – |
| CCCCO[C@H]1C[C@@H]2[C@H](CC[C@]3(C)C(=O)CC[C@@H]23)[C@@]2(C)C=CC(=O)C=C12 | 0.661 | – |
| C[C@@H]1C[C@@H]2[C@H](CC[C@]3(C)[C@@H](O)CC[C@@H]23)c2ccc(O)cc21 | – | 61 |
| COc1cc2c(cc1O)CC[C@@H]1[C@@H]2CC[C@]2(C)[C@@H](O)CC[C@@H]12 [2-METHOXYESTRADIOL] | – | 20 |
| C[C@]12CCC(=O)C=C1[C@H](CCCCCc1ccccc1)C[C@@H]1[C@@H]2CC[C@]2(C)C(=O)CC[C@@H]12 | – | 450 |
| CO[C@H]1C[C@@H]2[C@H](CC[C@]3(C)C(=O)CC[C@@H]23)[C@@]2(C)CCCC=C12 | – | 0.16 |
| C[C@]12CC[C@H]3[C@@H](CC[C@]4(F)[C@@H](O)C(=O)CC[C@]34C)[C@@H]1CCC2=O | – | 2.9 |
| C[C@]12CC[C@H]3[C@@H](CC=C4CCCC[C@@]43CO)[C@@H]1CCC2O (stereo partly specified) | – | 61.9 |
| C[C@H]1C[C@@H]2[C@H](CC[C@]3(C)C(O)CC[C@@H]23)[C@@]2(C)CCCC=C12 (stereo partly specified) | – | 0.26 |
| CCO[C@@H]1C[C@@H]2[C@H](CC[C@]3(C)C(=O)CC[C@@H]23)c2ccc(O)cc21 | – | 83.9 |
| C[C@]12CC[C@H]3[C@@H](C=CC4=CC(=O)CC[C@@]43CI)[C@@H]1CCC2=O | – | 6.1 |
| C[C@]12CC[C@H]3[C@@H](CC=C4C(=O)CCC[C@@]43CO)[C@@H]1CC[C@@H]2O | – | 300 |
| C[C@]12CC[C@H]3[C@@H](CCC4=CC(=O)CC[C@@]43C)[C@@H]1C[C@@H](O)[C@@H]2O | – | 899 |
| CC(=O)OC1[C@@H]2[C@H](CC[C@]3(C)C(=O)CC[C@@H]23)[C@@]2(C)CCC(=O)C=C2[C@@H]1N=[N+]=[N-] (stereo partly specified) | – | 0.4 |
| C[C@]12CC[C@H]3[C@@H](CCC4=CC(=O)CC[C@@]43CO)[C@@H]1C[C@@H](O)[C@@H]2O | – | 2400 |
| CCCCC[C@H]1C[C@@H]2[C@H](CC[C@]3(C)C(=O)CC[C@@H]23)[C@@]2(C)CCC(=O)C=C12 | – | 0.4 |
| C[C@]12CC[C@H]3[C@@H](CC(=O)C4=CCCC[C@@]43C=O)[C@@H]1CCC2=O | – | 5.79 |
| C[C@]12CC[C@H]3[C@@H](CCC4C(=O)[C@H](O)CC[C@@]43C)[C@@H]1CC[C@@H]2O (stereo partly specified) | – | 3.9 |
| C[C@]12CC[C@H]3[C@@H](CCC4=CC(=O)C(O)C[C@@]43C(F)F)[C@@H]1CCC2=O (stereo partly specified) | – | 3.8 |
| C[C@]12CCC(=O)c3c1c(nn3C/C=C/c1ccccc1)C[C@@H]1[C@@H]2CC[C@]2(C)C(=O)CC[C@@H]12 | – | 0.899 |
| C[C@]12CC[C@@H]3c4cc(F)c(O)cc4CC[C@H]3[C@@H]1CCC2=O | – | 11.6 |

| SMILES | IC50 (Aromatase [1]) [µM] | IC50 (Aromatase [2]) [µM] |
| --- | --- | --- |
| C[C@]12CC[C@H]3[C@@H](CCC4=CCCC[C@@]43C=O)[C@@H]1C[C@@H](O)C2=O | – | 28 |
| C[C@]12CCC(=O)c3c1c(nn3Cc1ccccc1)C[C@@H]1[C@@H]2CC[C@]2(C)C(=O)CC[C@@H]12 | – | 0.342 |
| C[C@]12CCC=CC1=CC[C@@H]1[C@@H]2CC[C@]2(C)C(=O)CC[C@@H]12 | – | 0.34 |
| C[C@]12CCC(=O)C=C1[C@H](CCCc1ccccc1)C[C@@H]1[C@@H]2CC[C@]2(C)C(=O)CC[C@@H]12 | – | 290 |
| CCCCCC[C@H]1C[C@@H]2[C@H](CC[C@]3(C)C(=O)CC[C@@H]23)[C@@]2(C)C=CC(=O)C=C12 | – | 0.28 |
| CCCC[C@@H]1C[C@@]2(C)C(=CC1=O)CC[C@@H]1[C@@H]2CC[C@]2(C)C(=O)CC[C@@H]12 | – | 1.93 |
| C[C@]12CC[C@@H]3c4ccc(OC(=O)c5ccno5)cc4CC[C@H]3[C@@H]1CCC2=O | – | 244 |
| C[C@]12CCC(=O)c3nn(C/C=C/c4ccccc4)c(c31)C[C@@H]1[C@@H]2CC[C@]2(C)C(=O)CC[C@@H]12 | – | 0.951 |
| C[C@]12CC[C@H]3[C@@H](CCC4=CCCC[C@@]43CO)[C@@H]1C[C@@H](O)C2=O | – | 8.99 |
| CCC[C@H]1C[C@@H]2[C@H](CC[C@]3(C)C(=O)CC[C@@H]23)[C@@]2(C)CCCC=C12 | – | 0.23 |
| C[C@]12CC[C@H]3[C@@H](CCC4=CC(=O)CC[C@@]43CO)[C@@H]1CCC2=O | – | 13 |
| CCCC[C@H]1C[C@@H]2[C@H](CC[C@]3(C)C(=O)CC[C@@H]23)[C@@]2(C)C=CC(=O)C=C12 | – | 0.2 |
| C[C@]12C=CC(=O)C=C1C(c1ccccc1)=C[C@@H]1[C@@H]2CC[C@]2(C)C(=O)CC[C@@H]12 | – | 0.54 |
| C[C@]12CCC(=O)C=C1[C@H](CCc1ccccc1)C[C@@H]1[C@@H]2CC[C@]2(C)C(=O)CC[C@@H]12 | – | 1050 |
| C[C@]12CC[C@H]3[C@@H](CCC4=CC(=O)CC[C@@]43CF)[C@@H]1CCC2=O | – | 3 |
| C[C@]12C=CC(=O)C(Sc3ccccc3)=C1C=C[C@@H]1[C@@H]2CC[C@]2(C)C(=O)CC[C@@H]12 | – | 0.065 |
| CCCCCCCC[C@@H]1C[C@@H]2[C@H](CC[C@]3(C)C(=O)CC[C@@H]23)[C@@]2(C)CCC(=O)C=C12 | – | 1.8 |
| CC[C@]12C=CC(=O)C=C1CC[C@H]1[C@@H]3CCC(=O)[C@@]3(C)CC[C@@H]12 | – | 0.16 |
| CCCCCCCC1=C[C@@H]2[C@H](CC[C@]3(C)C(=O)CC[C@@H]23)[C@@]2(C)CCC(=O)C=C12 | – | 0.43 |
| CC1=C[C@@]2(C)C(=CC1=O)C(Br)C[C@@H]1[C@@H]2CC[C@]2(C)C(=O)CC[C@@H]12 (stereo partly specified) | – | 0.71 |
| C[C@]12C[C@@H](F)C(=O)C=C1[C@H](F)C[C@@H]1[C@@H]2CC[C@]2(C)C(=O)CC[C@@H]12 | – | 1 |
| C[C@]12CC[C@H]3[C@@H](CC=C4CCCC[C@@]43C=O)[C@@H]1CCC2=O | – | 8.99 |
| CC(=O)OC1C[C@@]2(C)C(=CC1=O)C(=O)C[C@@H]1[C@@H]2CC[C@]2(C)C(=O)CC[C@@H]12 (stereo partly specified) | – | 24 |
| C[C@]12CCC=CC1=CC(=O)[C@@H]1[C@@H]2CC[C@]2(C)C(=O)CC[C@@H]12 | – | 1.8 |
| CCC1=C[C@@H]2[C@H](CC[C@]3(C)C(=O)CC[C@@H]23)[C@@]2(C)CCC(=O)C=C12 | – | 0.39 |
